Test results published in PubChem BioAssay AID268 (DTP/NCI, 2004).
Where “and” joins values, the source holds several entries; their conditions need not be identical. Equal entries are not always repeated.

System: CD2F1 mice, P1798 lymphosarcoma sc, tumor weight T/C
Assay: NCI In Vivo Anticancer Drug Screen. Data for tumor model P1798 Lymphosarcoma (subcutaneous) in CD2F1 (CDF1) mice
Details: higher = larger tumour
Procedure: The antitumor activity of compounds was measured in mice bearing transplantable tumors. Survival or tumor size were measured and the results are expressed as the measurement made in the treated group (T) divided by the measurement made in the vehicle treated control group (C). The tumor model used in this assay is P1798 Lymphosarcoma (subcutaneous) in CD2F1 (CDF1) mice

[1] = endpoint: mean tumor weight, dose: 0.63 mg/kg/injection, schedule: Q01DX010 (ip), vehicle: saline
[2] = endpoint: mean tumor weight, dose: 1.25 mg/kg/injection, schedule: Q01DX010 (ip), vehicle: saline
[3] = endpoint: mean tumor weight, dose: 2.5 mg/kg/injection, schedule: Q01DX010 (ip), vehicle: saline
[4] = endpoint: mean tumor weight, dose: 50.0 mg/kg/injection, schedule: Q01DX010 (ip), vehicle: saline
[5] = endpoint: mean tumor weight, dose: 100.0 mg/kg/injection, schedule: Q01DX010 (ip), vehicle: saline

`O=C1C=CC2(CCC23C=CC(=O)O3)O1` (centres undefined) was tested. Which T/C (endpoint: mean tumor weight, dose: 13.0 mg/kg/injection, schedule: Q01DX011 (ip), vehicle: saline) did it give?
Its T/C is 74 % of control.

And the T/C (endpoint: mean tumor weight, dose: 20.0 mg/kg/injection, schedule: Q01DX011 (ip), vehicle: saline)?
The T/C was 106 % of control.

And the T/C (endpoint: mean tumor weight, dose: 45.0 mg/kg/injection, schedule: Q01DX011 (ip), vehicle: saline)?
Its T/C is 108 % of control and 86 % of control.

And the T/C (endpoint: mean tumor weight, dose: 65.0 mg/kg/injection, schedule: Q01DX011 (ip), vehicle: saline)?
Its T/C is 103 % of control.

What about the T/C (endpoint: mean tumor weight, dose: 100.0 mg/kg/injection, schedule: Q01DX011 (ip), vehicle: saline) of the same compound?
The T/C was 89 % of control.

Which results are given for `Oc1cc(CN(CCCl)CCCl)c(O)cc1CN(CCCl)CCCl`?
T/C [1]: 71 % of control and 86 % of control; T/C [2]: 64 % of control and 88 % of control; T/C [3]: 42 % of control and 64 % of control

With `CN(N=O)C(=O)NC(C=O)C(O)C(O)C(O)CO` (centres undefined) as the compound, how does the T/C (endpoint: mean tumor weight, dose: 22.5 mg/kg/injection, schedule: Q01DX010 (ip), vehicle: saline) read?
The T/C was 43 % of control.

And the T/C (endpoint: mean tumor weight, dose: 40.0 mg/kg/injection, schedule: Q01DX010 (ip), vehicle: saline)?
The T/C was 97 % of control.

And the T/C (endpoint: mean tumor weight, dose: 45.0 mg/kg/injection, schedule: Q01DX010 (ip), vehicle: saline)?
Its T/C is 53 % of control.

What about the T/C (endpoint: mean tumor weight, dose: 60.0 mg/kg/injection, schedule: Q01DX010 (ip), vehicle: saline) of the same compound?
Its T/C is 64 % of control.

And the T/C (endpoint: mean tumor weight, dose: 90.0 mg/kg/injection, schedule: Q01DX010 (ip), vehicle: saline)?
Its T/C is 24 % of control and 29 % of control.

How did the T/C [4] turn out when `CN(C)/N=N/c1nc[nH]c1C(N)=O` was run?
Its T/C is 58 % of control.

And the T/C [5]?
Its T/C is 47 % of control.

And the T/C (endpoint: mean tumor weight, dose: 200.0 mg/kg/injection, schedule: Q01DX010 (ip), vehicle: saline)?
Its T/C is 7 % of control.

And the T/C (endpoint: mean tumor weight, dose: 400.0 mg/kg/injection, schedule: Q01DX010 (ip), vehicle: saline)?
The T/C was 3 % of control.

Which results are given for `CC/C(=C(/CC)c1ccc(O)cc1)c1ccc(O)cc1`?
T/C (endpoint: mean tumor weight, dose: 6.25 mg/kg/injection, schedule: Q01DX010 (sc), vehicle: steriod suspending solution): 91 % of control and 96 % of control; T/C (endpoint: mean tumor weight, dose: 100.0 mg/kg/injection, schedule: Q01DX010 (sc), vehicle: steriod suspending solution): 22 % of control and 45 % of control

For `CN[C@H]1CCc2cc(OC)c(OC)c(OC)c2-c2ccc(OC)c(=O)cc21`, which T/C (endpoint: mean tumor weight, dose: 0.63 mg/kg/injection, schedule: Q01DX010 (ip), vehicle: other) is on record?
The T/C was 108 % of control.

And the T/C [1]?
Its T/C is 59 % of control.

What about the T/C (endpoint: mean tumor weight, dose: 1.25 mg/kg/injection, schedule: Q01DX010 (ip), vehicle: other) of the same compound?
The T/C was 116 % of control.

What about the T/C [2] of the same compound?
Its T/C is 82 % of control.

What about the T/C (endpoint: mean tumor weight, dose: 2.5 mg/kg/injection, schedule: Q01DX010 (ip), vehicle: other) of the same compound?
Its T/C is 112 % of control.

And the T/C [3]?
Its T/C is 57 % of control.

And the T/C (endpoint: mean tumor weight, dose: 5.0 mg/kg/injection, schedule: Q01DX010 (ip), vehicle: other)?
The T/C was 96 % of control.

And the T/C (endpoint: mean tumor weight, dose: 5.0 mg/kg/injection, schedule: Q01DX010 (ip), vehicle: saline)?
The T/C was 32 % of control.

Which results are given for `CCN(CC)CCNc1ccc(C)c2sc3ccccc3c(=O)c12`?
T/C (endpoint: mean tumor weight, dose: 12.5 mg/kg/injection, schedule: Q01DX010 (ip), vehicle: saline): 76 % of control; T/C (endpoint: mean tumor weight, dose: 25.0 mg/kg/injection, schedule: Q01DX010 (ip), vehicle: saline): 31 % of control and 43 % of control; T/C [4]: 10 % of control and 29 % of control; T/C [5]: 10 % of control

For `c1ccc(CNc2ncnc3[nH]ncc23)cc1`, which T/C (endpoint: mean tumor weight, dose: 16.0 mg/kg/injection, schedule: Q01DX010 (ip), vehicle: saline) is on record?
The T/C was 98 % of control.

What about the T/C (endpoint: mean tumor weight, dose: 32.0 mg/kg/injection, schedule: Q01DX010 (ip), vehicle: saline) of the same compound?
The T/C was 83 % of control.

And the T/C (endpoint: mean tumor weight, dose: 64.0 mg/kg/injection, schedule: Q01DX010 (ip), vehicle: saline)?
The T/C was 70 % of control.

For `C[C@@H]1C[C@H]2[C@@H]3CCC4=CC(=O)C=C[C@]4(C)[C@@]3(F)[C@@H](O)C[C@]2(C)[C@@]1(O)C(=O)CO`, which T/C (endpoint: mean tumor weight (est.), dose: 3.13 mg/kg/injection, schedule: Q01DX016 (sc), vehicle: saline) is on record?
The T/C was 55 % of control.

And the T/C (endpoint: mean tumor weight (est.), dose: 6.25 mg/kg/injection, schedule: Q01DX016 (sc), vehicle: saline)?
The T/C was 7 % of control.

What about the T/C (endpoint: mean tumor weight, dose: 3.13 mg/kg/injection, schedule: Q01DX005 (sc), vehicle: steriod suspending solution) of the same compound?
Its T/C is 33 % of control.

And the T/C (endpoint: mean tumor weight, dose: 3.13 mg/kg/injection, schedule: Q01DX010 (sc), vehicle: steriod suspending solution)?
The T/C was 5 % of control.

What about the T/C (endpoint: mean tumor weight, dose: 6.25 mg/kg/injection, schedule: Q01DX005 (sc), vehicle: steriod suspending solution) of the same compound?
Its T/C is 8 % of control.

What about the T/C (endpoint: mean tumor weight, dose: 6.25 mg/kg/injection, schedule: Q02DX010 (sc), vehicle: steriod suspending solution) of the same compound?
Its T/C is 116 % of control.

What about the T/C (endpoint: mean tumor weight, dose: 12.5 mg/kg/injection, schedule: Q01DX005 (sc), vehicle: steriod suspending solution) of the same compound?
Its T/C is 4 % of control.

What about the T/C (endpoint: mean tumor weight, dose: 12.5 mg/kg/injection, schedule: Q02DX010 (sc), vehicle: steriod suspending solution) of the same compound?
The T/C was 98 % of control.

What about the T/C (endpoint: mean tumor weight, dose: 25.0 mg/kg/injection, schedule: Q01DX005 (sc), vehicle: steriod suspending solution) of the same compound?
The T/C was 1 % of control.

And the T/C (endpoint: mean tumor weight, dose: 25.0 mg/kg/injection, schedule: Q02DX010 (sc), vehicle: steriod suspending solution)?
The T/C was 56 % of control.
